Laboratory results published in patent publication US9132127B2, “Substituted pyrido[2,3-B]pyrazines as IP receptor agonists” (Novartis AG, priority 2010, dated 2015).

What follows are compounds tested against T1, IP receptor (Homo sapiens, UniProt P43119) (assay: cAMP accumulation in CHO cells stably expressing the IP receptor (CHO-IP), PerkinElmer AlphaScreen assay). Details: 1 hour at room temperature, Table 1, read-out: EC50.
T1 construct: expressed in transfected cells; host or cells: CHO cells stably expressing the IP receptor (CHO-IP)
T1 sequence (P43119 whole entry): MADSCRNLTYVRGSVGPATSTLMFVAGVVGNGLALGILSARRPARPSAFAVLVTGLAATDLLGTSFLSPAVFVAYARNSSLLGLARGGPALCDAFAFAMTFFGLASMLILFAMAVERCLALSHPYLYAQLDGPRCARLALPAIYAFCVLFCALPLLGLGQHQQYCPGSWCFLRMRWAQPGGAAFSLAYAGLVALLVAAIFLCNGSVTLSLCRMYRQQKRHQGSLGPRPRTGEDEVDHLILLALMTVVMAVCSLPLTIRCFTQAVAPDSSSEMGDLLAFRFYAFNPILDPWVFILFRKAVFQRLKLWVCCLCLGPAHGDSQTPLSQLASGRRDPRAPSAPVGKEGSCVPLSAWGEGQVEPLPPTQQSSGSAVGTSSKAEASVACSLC
Type: cell-based
Procedure: Activity of compounds at the IP receptor (IP receptor) is assessed by measuring cAMP accumulation in CHO cells stably expressing the IP receptor (CHO-IP) using the PerkinElmer AlphaScreen assay. This technology measures the endogenous production of cAMP, in a non-radioactive luminescence proximity homogenous assay. A biological reaction occurs between streptavidin coated donor beads, biotinylated cAMP and anti-cAMP acceptor beads, bringing the donor and acceptor beads close enough together so that upon excitation a fluorescence signal is produced. On production of endogenous cAMP, competition between the biotinylated cAMP and cellular-derived cAMP causes a reduction in the fluorescent signal. The reduction in signal is proportional to the amount of cAMP being produced, thus it is possible to quantify the amount of cAMP being produced on stimulation with agonist.
Test and reference compounds are prepared at 100×[final] in 100% DMSO, and diluted 1:3 using a Biomek Fx (Beckman Coulter). This is followed by an intermediate dilution to give 5×[final] in assay buffer (HBSS containing 5 mM HEPES, 0.1% (w/v) BSA). 5 μL of 5×[final] test compounds, reference compounds and buffer/DMSO control are then transferred to a 384-well white OptiPlate, containing 20 μL CHO—IP cell suspension (15,000 cells/well, prepared from frozen), and plate is incubated at room temperature for 1 hour. A cAMP standard curve is constructed for each experiment (concentration range of 10000 nM to 0.001 nM, in assay buffer) and 25 μL of each concentration added to the last two columns of the assay plate. The incubation is terminated by the addition of lysis buffer (dH2O; 0.3% (v v^−1) Tween-20) containing 20 units mL^−1 streptavidin coated donor beads and biotinylated cAMP (pre-incubated for 30 minutes) and 20 units mL^−1 anti-cAMP acceptor beads, which are added to the lysis buffer just before addition to the assay plate. The assay plate is then incubated at room temperature in the dark, for 60 minutes with gentle shaking, and read on the Envision plate reader (Perkin Elmer).
The raw data of the reference compounds, test compounds and controls are converted into cAMP concentrations, using the cAMP standard curve, in GraphPadPrism (GraphPad Software Inc). EC50 as well as maximal values of the agonist curves are determined using a 4-parameter logistic equation. The % maximum response values of all test compounds are determined using the top of the treprostinil concentration-response curve.

SMILES	EC50
Cc1ccc(-c2nc3c(nc2-c2ccc(C)cc2)N(CCCC(O)C(O)CC(=O)O)CCC3)cc1 (racemic) [Example 15.1, rac-7-(2,3-Dip-tolyl-7,8-dihydropyrido[2,3-b]pyrazin-5(6H)-yl)-3,4-dihydroxyheptanoic acid]	57 nM
CN1c2nc(-c3ccccc3)c(-c3ccccc3)cc2CCC1CCCCCC(=O)O (single isomer, unassigned) [Example 2.1, 6-(1-methyl-6,7-diphenyl-1,2,3,4-tetrahydro-1,8-naphthyridin-2-yl)hexanoic acid]	30 nM
CN1c2nc(-c3ccccc3)c(-c3ccccc3)cc2CCC1CCCCCC(=O)O (single isomer, unassigned) [Example 2.2, 6-(1-methyl-6,7-diphenyl-1,2,3,4-tetrahydro-1,8-naphthyridin-2-yl)hexanoic acid]	100 nM
CC1CCc2cc(-c3ccccc3)c(-c3ccccc3)nc2N1CCCCCCC(=O)O (single isomer, unassigned) [Example 3.1, 7-(2-methyl-6,7-diphenyl-3,4-dihydro-1,8-naphthyridin-1(2H)-yl)heptanoic acid]	36 nM
CC1CCc2cc(-c3ccccc3)c(-c3ccccc3)nc2N1CCCCCCC(=O)O (single isomer, unassigned) [Example 3.2, 7-(2-methyl-6,7-diphenyl-3,4-dihydro-1,8-naphthyridin-1(2H)-yl)heptanoic acid]	245 nM
Cc1ccc(-c2nc3c(nc2-c2ccc(C)cc2)N(CCCCCCC(=O)O)C(C)CC3)cc1 (single isomer, unassigned) [Example 4.14, 7-(6-methyl-2,3-dip-tolyl-7,8-dihydropyrido[2,3-b]pyrazin-5(6H)-yl)heptanoic acid]	0.13 nM
Cc1ccc(-c2nc3c(nc2-c2ccc(C)cc2)N(CCCCCCC(=O)O)C(C)CC3)cc1 (single isomer, unassigned) [Example 4.15, 7-(6-methyl-2,3-dip-tolyl-7,8-dihydropyrido[2,3-b]pyrazin-5(6H)-yl)heptanoic acid]	0.48 nM
Cc1ccc(-c2nc3c(nc2-c2ccc(C)cc2)N(CCCCCCC(=O)O)CC(O)C3O)cc1 (single isomer, unassigned) [Example 8.2a, 7-(7,8-dihydroxy-2,3-dip-tolyl-7,8-dihydropyrido[2,3-b]pyrazin-5(6H)-yl)heptanoic acid]	0.49 nM
Cc1ccc(-c2nc3c(nc2-c2ccc(C)cc2)N(CCCCCCC(=O)O)CC(O)C3O)cc1 (single isomer, unassigned) [Example 8.2b, 7-(7,8-dihydroxy-2,3-dip-tolyl-7,8-dihydropyrido[2,3-b]pyrazin-5(6H)-yl)heptanoic acid]	0.89 nM
Cc1ccc(-c2nc3c(nc2-c2ccc(C)cc2)N(CCCCCCC(=O)O)CCC3O)cc1 (single isomer, unassigned) [Example 9.8, rac-7-(8-Hydroxy-2,3-dip-tolyl-7,8-dihydropyrido[2,3-b]pyrazin-5(6H)-yl)heptanoic acid]	0.296 nM
Cc1ccc(-c2nc3c(nc2-c2ccc(C)cc2)N(CCCCCCC(=O)O)CCC3O)cc1 (single isomer, unassigned) [Example 9.8a, 7-(8-Hydroxy-2,3-dip-tolyl-7,8-dihydropyrido[2,3-b]pyrazin-5(6H)-yl)heptanoic acid]	0.4 nM
Cc1ccc(-c2nc3c(nc2-c2ccc(C)cc2)N(CCCCCCC(=O)O)CCC3O)cc1 (single isomer, unassigned) [Example 9.8b, 7-(8-Hydroxy-2,3-dip-tolyl-7,8-dihydropyrido[2,3-b]pyrazin-5(6H)-yl)heptanoic acid]	1.8 nM
Cc1ccc(-c2nc3c(nc2-c2ccc(C)cc2)N(CCCCCCC(=O)O)CC(O)C3)cc1 (single isomer, unassigned) [Example 14.1, 7-(7-hydroxy-2,3-dip-tolyl-7,8-dihydropyrido[2,3-b]pyrazin-5(6H)-yl)heptanoic acid]	0.0718 nM
Cc1ccc(-c2nc3c(nc2-c2ccc(C)cc2)N(CCCCCCC(=O)O)CC(O)C3)cc1 (single isomer, unassigned) [Example 14.2, 7-(7-hydroxy-2,3-dip-tolyl-7,8-dihydropyrido[2,3-b]pyrazin-5(6H)-yl)heptanoic acid]	0.0627 nM
COC1Cc2nc(-c3ccc(C)cc3)c(-c3ccc(C)cc3)nc2N(CCCCCCC(=O)O)C1 (single isomer, unassigned) [Example 17.1a, 7-(7-methoxy-2,3-dip-tolyl-7,8-dihydropyrido[2,3-b]pyrazin-5(6H)-yl)heptanoic acid]	3 nM
COC1Cc2nc(-c3ccc(C)cc3)c(-c3ccc(C)cc3)nc2N(CCCCCCC(=O)O)C1 (single isomer, unassigned) [Example 17.1b, 7-(7-methoxy-2,3-dip-tolyl-7,8-dihydropyrido[2,3-b]pyrazin-5(6H)-yl)heptanoic acid]	4.8 nM
O=C(O)CCCCCCN1CCCc2cc(-c3ccccc3)c(-c3ccccc3)nc21 [Example 1.1, 7-(6,7-Diphenyl-3,4-dihydro-1,8-naphthyridin-1(2H)-yl)heptanoic acid]	5.5 nM
O=C(O)CCCCCCN1CCCc2nc(-c3ccccc3)c(-c3ccccc3)nc21 [Example 4.1, 7-(2,3-diphenyl-7,8-dihydropyrido[3,2-b]pyrazin-5(6H)-yl)heptanoic acid]	1.2 nM
Cc1ccc(-c2nc3c(nc2-c2ccc(C)cc2)N(CCCCCCC(=O)O)CCC3)cc1 [Example 4.3, 7-(2,3-Dip-tolyl-7,8-dihydropyrido[2,3-b]pyrazin-5(6H)-yl)heptanoic acid]	0.11 nM
Cc1ccc(-c2nc3c(nc2-c2ccccc2)CCCN3CCCCCCC(=O)O)cc1 [Example 5.2, 7-(2-Phenyl-3-p-tolyl-7,8-dihydropyrido[2,3-b]pyrazin-5(6H)-yl)heptanoic acid]	0.08 nM
Cc1ccc(-c2nc3c(nc2-c2ccc(C)c(F)c2)N(CCCCCCC(=O)O)CCC3)cc1F [Example 6.1, 7-(2,3-bis(3-Fluoro-4-methylphenyl)-7,8-dihydropyrido[2,3-b]pyrazin-5(6H)-yl)heptanoic acid]	0.32 nM
O=C(O)CCCCCCN1CC[C@@H](O)c2nc(-c3ccccc3)c(-c3ccccc3)nc21 [Example 9.1, (R)-7-(8-Hydroxy-2,3-diphenyl-7,8-dihydropyrido[2,3-b]pyrazin-5(6H)-yl)heptanoic acid]	5.6 nM
O=C(O)CCCCCCN1CC[C@H](O)c2nc(-c3ccccc3)c(-c3ccccc3)nc21 [Example 9.2, (S)-7-(8-Hydroxy-2,3-diphenyl-7,8-dihydropyrido[2,3-b]pyrazin-5(6H)-yl)heptanoic acid]	8.6 nM
Cc1ccc(-c2nc3c(nc2-c2ccc(C)cc2)N(CCCCCCC(=O)O)C(=O)CC3)cc1 [Example 12.1, 7-(6-oxo-2,3-dip-tolyl-7,8-dihydropyrido[2,3-b]pyrazin-5(6H)-yl)heptanoic acid]	0.0754 nM
Cc1ccc(-c2nc3c(nc2-c2ccc(C)cc2)N(CCCCCCC(=O)O)C(=O)C(O)C3)cc1 (stereo not shown) [Example 16.1, 7-(7-Hydroxy-6-oxo-2,3-dip-tolyl-7,8-dihydropyrido[2,3-b]pyrazin-5(6H)-yl)heptanoic acid]	0.74 nM

Same assay, conditions: read-out: EC50 values in the data measurements described above

SMILES	EC50
O=C(O)CCCCN1CCCc2cc(-c3ccccc3)c(-c3ccccc3)nc21 [5-(6,7-diphenyl-3,4-dihydro-1,8-naphthyridin-1(2H)-yl)pentanoic acid]	> 10000 nM
CCCc1ccc(-c2nc3c(nc2-c2ccc(CCC)cc2)N(CCCCCC(=O)OCC)CCC3)cc1 [ethyl 6-(2,3-bis(4-propylphenyl)-7,8-dihydropyrido[2,3-b]pyrazin-5(6H)-yl)hexanoate]	> 10000 nM
CCOC(=O)CCCCCCN1CCCc2nc(-c3cccc(C)c3)c(-c3ccc(C)cc3)nc21 [ethyl 7-(2-(m-tolyl)-3-(p-tolyl)-7,8-dihydropyrido[2,3-b]pyrazin-5(6H)-yl)heptanoate]	> 10000 nM
